Laboratory results published in patent publication US8383139B2 (Bayer CropScience AG, priority 2008, dated 2013).
Read-outs that look alike come from different tables or passages of the source.

Columns and labels:
Alternaria solani = assay: Alternaria test (tomato)/protective; assay type: in vivo; settings: 72 h, 100 ppm active substance, protective, evaluation 3 days after inoculation, read-out: degree of effectiveness
Uromyces appendiculatus = assay: Uromyces test (beans)/protective; assay type: in vivo; settings: 240 h, 100 ppm active substance, protective, evaluation 10 days after inoculation, read-out: degree of effectiveness
Outline: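 Young bean plants were sprayed with compound (acetone/dimethylacetamide/emulsifier concentrate diluted in water), dried, then inoculated with U. appendiculatus spores. They were held 1 day at ~20 °C, 100% RH, then kept in a greenhouse at ~21 °C, ~90% RH. Efficacy was scored at 10 days post-inoculation (0% = control, 100% = no infestation).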

Sphaerotheca fuliginea = assay: Sphaerotheca test (cucumber)/protective; assay type: in vivo; settings: Podosphaera fuliginea, 168 h, 500 ppm active substance, protective, evaluation 7 days after inoculation, read-out: degree of effectiveness
Outline: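 Young cucumber plants sprayed at the stated rate with active substance in DMF/alkylaryl polyglycol ether emulsifier diluted in water, then inoculated with Sphaerotheca fuliginea spores one day later. Kept in greenhouse at 70% relative humidity, 23° C.; scored 7 days post-inoculation as % efficacy (0% = untreated control, 100% = no infestation).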

Septoria tritici = Septoria tritici test (wheat)/protective; assay type: in vivo; settings: Zymoseptoria tritici, 504 h, 500 ppm active substance, protective, evaluation 21 days after inoculation, read-out: degree of effectiveness
Outline: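 Young wheat plants sprayed with compound in dimethylacetamide/emulsifier-water, then inoculated with S. tritici spores once dry. Kept 48 h at 20 °C/100% RH, 60 h at 15 °C/100% RH, then greenhouse ~15 °C/80% RH. Scored 21 days post-inoculation as % efficacy versus untreated control.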

Puccinia triticina = Puccinia triticina test (wheat)/protective; assay type: in vivo; settings: 192 h, 500 ppm active substance, protective, evaluation 8 days after inoculation, read-out: degree of effectiveness
Outline: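 Protective test: young wheat plants sprayed with compound (in N,N-dimethylacetamide/emulsifier, diluted in water) at the stated rate, dried, then inoculated with Puccinia triticina spores; 48 h at 20 °C, 100% RH, then greenhouse ~20 °C, ~80% RH. Efficacy scored 8 days post-inoculation, 0% = untreated control, 100% = no infestation.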

[1] = log P by HPLC on reversed-phase columns (C 18), EEC Directive 79/831 Annex V.A8; assay type: physicochemical; settings: reversed-phase C18 HPLC column
Phakopsora pachyrhizi = assay: Phakopsora test (soybean)/protective; assay type: in vivo; settings: 264 h, 500 ppm active substance, protective, evaluation 11 days after inoculation, read-out: degree of effectiveness
Protocol: • Solvent: 28.5 parts by weight of acetone • Emulsifier: 1.5 parts by weight of polyoxyethylene alkylphenyl ether (polyoxy-ethylene (16) tristearylphenyl ether)
To prepare a suitable active substance composition, 1 part by weight of active substance is mixed with the given amounts of solvent and emulsifier and the concentrate is diluted to the desired concentration using water.
For the testing of protective effectiveness, young plants are sprayed with the active substance composition at the application rate given. One day after the spraying, the plants are sprayed with an aqueous suspension of spores of Phakopsora pachyrhizi. The plants remain in a greenhouse at 20° C. and 80% relative humidity.
Evaluation is carried out 11 days after the inoculation. In this connection, 0% means a degree of effectiveness corresponding to that of the control, while a degree of effectiveness of 100% means that no infestation is observed.

[2] = pH 2.3, [a] HPLC, acid region pH 2.3, 0.1% aqueous phosphoric acid and acetonitrile, read-out: log p
[3] = pH 2.3, pH 2.3, given in synthesis examples, read-out: log P (pH2.3)

Row | SMILES | pest or weed control at 100 ppm (Alternaria solani) [%] | pest or weed control at 100 ppm (Uromyces appendiculatus) [%] | pest or weed control at 500 ppm (Sphaerotheca fuliginea) [%] | pest or weed control at 500 ppm (Septoria tritici) [%] | pest or weed control at 500 ppm (Puccinia triticina) [%] | chromatographic logP [1, 2] | pest or weed control at 500 ppm (Phakopsora pachyrhizi) [%] | chromatographic logP [1, 3]
1 | CCN(C)C=Nc1cc(C)c(Oc2nc(Cc3ccc(C)cc3[N+](=O)[O-])ns2)cc1C [Example 24, N′-(2,5-dimethyl-4-{[3-(4-methyl-2-nitrobenzyl)-1,2,4-thiadiazol-5-yl]oxy}phenyl)-N-ethyl-N-methylimidoformamide] | ≥ 70 | ≥ 70 | ≥ 70 | ≥ 70 | ≥ 70 | 1.89 | ≥ 80 | –
2 | CCN(C)C=Nc1cc(C)c(Oc2nc(C(C)(C)c3ccc(Cl)cc3)ns2)cc1C [Example 25, N′-[4-({3-[2-(4-chlorophenyl)propan-2-yl]-1,2,4-thiadiazol-5-yl}oxy)-2,5-dimethylphenyl]-N-ethyl-N-methylimidoformamide] | ≥ 70 | ≥ 70 | ≥ 70 | ≥ 70 | ≥ 70 | 2.55 | ≥ 80 | –
3 | CCN(C)C=Nc1cc(C)c(Oc2nc(Cc3ccc(Br)cc3)ns2)cc1C [Example 31, N′-(4-{[3-(4-bromobenzyl)-1,2,4-thiadiazol-5-yl]oxy}-2,5-dimethylphenyl)-N-ethyl-N-methylimidoformamide] | ≥ 70 | ≥ 70 | ≥ 70 | ≥ 70 | ≥ 70 | 2.07 | ≥ 80 | –
4 | Cc1cc(Oc2nc(Cc3ccc(Br)cc3)ns2)c(C)cc1N=CN(C)C(C)C [Example 32, N′-(4-{[3-(4-bromobenzyl)-1,2,4-thiadiazol-5-yl]oxy}-2,5-dimethylphenyl)-N-methyl-N-(propan-2-yl)imidoformamide] | ≥ 70 | ≥ 70 | ≥ 70 | ≥ 70 | ≥ 70 | – | ≥ 80 | –
5 | CCN(C)C=Nc1cc(C)c(Oc2nc(Cc3cccc(Cl)c3)ns2)cc1C [Example 35, N′-(4-{[3-(3-chlorobenzyl)-1,2,4-thiadiazol-5-yl]oxy}-2,5-dimethylphenyl)-N-ethyl-N-methylimidoformamide] | ≥ 70 | ≥ 70 | ≥ 70 | ≥ 70 | ≥ 70 | 2.31 | ≥ 80 | 2.31
6 | CCN(C)C=Nc1cc(C)c(Oc2nc(C3(c4ccc(Cl)cc4)CC3)ns2)cc1C [Example 37, N′-[4-({3-[1-(4-chlorophenyl)cyclopropyl]-1,2,4-thiadiazol-5-yl}oxy)-2,5-dimethylphenyl]-N-ethyl-N-methylimidoformamide] | ≥ 70 | ≥ 70 | ≥ 70 | ≥ 70 | ≥ 70 | 2.21 | ≥ 80 | 2.28
7 | CCN(C)C=Nc1cc(Cl)c(Oc2nc(C3(c4ccc(Cl)cc4)CC3)ns2)cc1C [Example 40, N′-[5-chloro-4-({3-[1-(4-chlorophenyl)cyclopropyl]-1,2,4-thiadiazol-5-yl}oxy)-2-methylphenyl]-N-ethyl-N-methylimidoformamide] | ≥ 70 | ≥ 70 | ≥ 70 | ≥ 70 | ≥ 70 | 2.55 | ≥ 80 | –
